The text below walks through data of patent US20230181535A1, “UBIQUITIN-LIGASE INHIBITORS FOR THE TREATMENT OF CANCER” (FUNDACIÓN PROFESOR NOVOA SANTOS, priority 2020, published 2023).

Data set [1] concerns epithelial MDCK cells. The data set can be described thus: Phase-contrast cell phenotype, MDCK. Type of data set: cell-based. As for the experimental part:
MDCK, HEK293T, HepG2, MCF7 and ACHN cells were cultured in Dulbecco's Modified Eagles Medium (DMEM). MDCK stably expressing Hakai cells (Hakai-MDCK) were previously reported and were growth in DMEM with G418 (800 μg/ml). […] LoVo and PC-3 cells were cultured in F-12K Medium (Kaighn's Modification of Ham's F-12 Medium) and HT-29 and HCT116 cells in McCoy's 5a Medium Modified. 5637 cells were cultured in RPMI medium. All culture media were supplemented with 1% penicillin/streptomycin and 10% of heat-inactivated fetal bovine serum (FBS) at 37° C. in a humidified incubator with 5% CO2. Cells were monthly tested for mycoplasma contamination and used only for 1-3 months after defrosted. LoVo and HT29 cells were authenticated with the StemElite ID system (Promega). For phase-contrast images, culture cells were photographed with a Nikon Eclipse-TI microscope.

Data set [2] has as its system mesenchymal Hakai-MDCK cells. The data set can be described thus: E-cadherin protein levels in Hakai-MDCK cells. Type of data set: cell-based. Conditions: Hakai-MDCK cells (no basal E-cadherin). As for the experimental part: For western blot analysis, cells were treated with the indicated inhibitors for 48 h and the whole cell extracts were obtained as described previously. Twenty micrograms of lysates were resolved on a 10% polyacrilamide SDS-PAGE followed by western blot analysis performed as previously described. For immunofluorescence assays cells were grown for 24 h on glass coverslips and treated with the indicated inhibitors for 48 h. Cells were fixed with 4% PFA for 15 min, permeabilized with 0.5% […] and incubated with E-cadherin antibody for 2 h. Coverslips were incubated with fluorescein-tagged secondary antibody (Dakopatts, Sweden) for […]. Finally coverslips were mounted with ProLong Gold antifade reagent (LifeTech, UK) and images were taken in epifluorescence microscope (Olympus) using 40× objective. […] One set of SIM Synthetic Focus images were taken in the DAPI channel for Hoechst 33342 staining, and another set of images were taken in the FITC channel for anti-E-cadherin-AlexaFluor488 labeling and analysed by Structured Illumination Microscopy (SIM™) platform to image the cells and Vala's CyteSeer® Cell-Cell Junction Algorithm to quantify the degree of expression and intracellular location of E-cadherin Vala's CyteSeer® Software can also measure relative DNA content by analyzing Total Integrated Intensity (TII) of the Nuclear Image (Ni) on the Nuclear Mask (Nm). […]

Data set [3] has as its system LoVo cells. The data set can be described thus: BrdU proliferation assay, LoVo. To be noted: 48 h. It is filed as cell-based. As for the experimental part:
(§1) For BrdU assays, 1×10^4 of indicated cells were plated per well into a 96-well plate. After 24 h, cells were treated with the indicated inhibitors for 48 h. Three independent experiments were plated with six replicates per each condition. Cells were treated with […] BrdU for 2 h. BrdU incorporation into newly synthesized DNA was measured using a cell proliferation colorimetric immunoassay kit according to the manufacturer's instructions (Roche, Switzerland). Results are expressed as mean±S.D. Results are represented as percentage of positive cells (mean±S.D) of three independent experiments.

Data set [4] relates to breast cancer MCF7 cell. Nature of the data set: BrdU proliferation assay, MCF7. Type of data set: cell-based, human. Conditions: 48 h. As for the experimental part: as §1
For data set [5], the system named is Hakai-MDCK cells. The data set can be described thus: Invasion assay, Hakai-MDCK. Type of data set: cell-based. Conditions: treated 48 h. As for the experimental part:
For invasion assays, cells were treated with Hakin-1 or DMSO as vehicle for 48 h using 1% FBS during the last 24 hours. 3×10^5 MDCK, MDCK-Hakai or LoVo cells were seeded in a cell invasion chamber (Cell invasion assay kit, Chemicon International) containing medium with 2% FBS. After 72 hours for MDCK and MDCK-Hakai Invasive and 16 h for LoVo cells, invasive cells invaded that reach the lower chamber containing 30% FBS were fixed and stained with crystal violet (Sigma Aldrich, St Louis, Mo.) following the manufacturer's specifications. For migration assays, HT29 cells were cultured with Hakin-1 or DMSO as vehicle for 48 h, using medium without serum the last 24 h. In the cell migration chamber were seeded 3×10^5 HT29 cells (Cell migration kit, Millipore, Bedford, Mass.) containing medium without serum. After 16 h, migrated cells in the lower chamber containing serum with 30% FBS were stained with crystal violet and counted following the manufacturer's specifications. For both invasion and migration assays cells were counted in five fields photographed with an Olympus microscope using a 20× objective, experiments were performed in triplicates for each condition and the assays were repeated at least three times. Results are expressed as mean±SD.

Data set [6] in a line: Hepatocyte stability, human. Conditions: cryopreserved human hepatocytes in suspension, read-out: estimated half-life. It is filed as in vitro ADME. As for the experimental part:
Test compound (final substrate concentration 3 μM; final DMSO concentration 0.25%) were pre-incubated at 37° C., prior to the addition of a suspension of cryopreserved hepatocytes (final cell density 0.5×10^6 viable cells/mL in Williams E media supplemented with 2 mM L glutamine and 25 mM HEPES) to initiate the reaction. The reactions were stopped with acetonitrile containing internal standard at the appropriate time points ([…]). The termination plates were centrifuged at 2500 rpm at 4° C. for 30 minute to precipitate the protein. Following the hepatocyte stability assays, the samples were utilized for metabolite profiling. Hepatocyte stability in mouse and human was performed by using the incubation of tested compound (3 μM) with cryopreserved hepatocytes in suspension. Samples were removed at 6 time points over the course of a 60 min experiment and remaining test compound at each time point was analysed by using LC-MS/MS. Then, data was analysed and an intrinsic clearance (CLint) with standard error and half-life (t½) reported.

The test system of data set [7] is tumour culture cells. Nature of the data set: In vitro antitumor effect (summary of cell assays). Type of data set: cell-based.
The test system of data set [8] is Colon cancer HCT116 cells. Nature of the data set: BrdU proliferation assay, HCT116. It is filed as cell-based, human. Conditions: 48 h. As for the experimental part:
as §1

SMILES strings stand for the structures.

Take `O=C(O)c1ccc(-n2nnnc2SCC(=O)c2ccc([N+](=O)[O-])cc2)cc1` [Hakin-1, 4-(5-[2-(4-nitrophenyl)-2-oxoethyl]thiol-1H-tetrazol-1-yl)benzoic acid]: the “cell phenotype by phase contrast” value in data set [1] is recorded as “no effect was observed”. Also, the E-cadherin protein levels result in data set [2] is on record as “no recovery was detected”. Also, the “cell proliferation (BrdU)” value in data set [3] was “reduced cell proliferation”; in data set [4], “inhibited cell proliferation”. For the same compound, the cell invasion result in data set [5] is recorded as “decreased cell invasion”. Besides, in data set [6], the half-life at 3 μM was 2.33 h. Also, the “concentration at which the in vitro antitumor effect was observed” value in data set [7] lay within 100 to 200 µM.

For the compound `O=C(O)c1ccc(-n2nnnc2SCC(O)c2ccc([N+](=O)[O-])cc2)cc1` (centres unmarked) [MKH1], in data set [8], the “cell proliferation (BrdU)” value is “inhibit cell proliferation”.
